In publication PMC12018048, “Intranasal kisspeptin administration rapidly stimulates gonadotropin release in humans” (eBioMedicine, 2025):
Several values for one entry are separate records, joined by “and”; a condition that tells them apart may be missing. Equal entries are not always repeated.

What was measured:
[1] = test system: serum LH, FSH and testosterone; experiment: Intranasal kisspeptin-54, reproductive hormone profiles in healthy men; type: in vivo, human; conditions: N = 12; for AUC of the change in serum LH / AUC of the change in serum testosterone / AUC of the change in serum FSH: 4 h sampling; for AUC of the change in serum LH / AUC of the change in serum testosterone / Max increase from baseline in serum testosterone / Maximum increase from baseline in serum FSH / Maximum increase from baseline in serum LH / AUC of the change in serum FSH: mean ± SEM; for Serum FSH over the sampling period, mean difference vs placebo / Serum LH over the sampling period, mean difference vs placebo: 4 h time profile
Method: This was a randomised, double-blinded, crossover, placebo-controlled clinical study (Fig. 1, Fig. 2, Fig. 3a). Participants were admitted to the Clinical Research Unit (Imperial College Healthcare NHS Trust) and completed five (in healthy men) or two (in healthy women and patients with HA) study visits. […] Study visits in healthy women were conducted in the follicular phase of the menstrual cycle (i.e., days 2–10 inclusive) to control for changes in reproductive hormones over the course of the cycle and were conducted across two different menstrual cycles to allow washout.
(§1) All studies commenced at 08:00 to control for circadian hormonal changes. Participants were instructed to abstain from alcohol, caffeine, and sexual activities from 22:00 preceding each study visit. On arrival, an intravenous cannula was inserted into one antecubital fossa, and blood was sampled at timepoints −30, −15, and 0 min, before intranasal administration of kisspeptin-54 or 0.9% saline (placebo). Following participant education (described below), healthy men self-administered the following 5 interventions under supervision in random order via the intranasal route: 3.2, 6.4, 12.8, and 25.6 nmol/kg of kisspeptin-54, or placebo. Healthy women and patients with HA attended for the same protocol comparing 12.8 nmol/kg of kisspeptin-54 and placebo in random order. After administration of kisspeptin-54 or placebo at timepoint 0 min, serum levels of LH, FSH, and testosterone (in men), or oestradiol and progesterone (in women) were measured every 15 min for 4 h. Heart rate, blood pressure, and the presence of adverse symptoms were recorded every 15 min.
Kisspeptin-54 or placebo was self-administered using nasal spray devices that delivered a single volume of 100 μL per actuation (SP270+ pump, 3959 actuator, 5 mL SGD U-Save glass bottles provided by Nemera, La Verpillière, France). The kisspeptin-54 nasal spray solution formulations were prepared by reconstituting kisspeptin-54 powder stored in sterile vials on the morning of each study visit to produce a solution containing the target dose according to body weight in 400 μL.
Participants were familiarised with the procedure of intranasal application and were provided with written administration instructions ahead of each study visit, as described in.[38] In addition, participants received a 5-min training session using a dummy nasal spray device before starting the study to ensure good technique, which all participants easily understood. Under instruction and supervision from the clinical team, participants primed the nasal sprays then self-administered a total of four sprays of kisspeptin-54 or placebo per visit (i.e., 4 × 100 μL), alternating between nostrils and leaving 60 s between sprays, to allow satisfactory dissipation and avoid solution running out of the nostrils. Nasal sprays containing kisspeptin or placebo were identical in appearance, volume, and administration technique.
Blood samples were collected to measure serum reproductive hormone levels at the timepoints depicted in Fig. 1, Fig. 2, Fig. 3a. Serum samples were stored at −20 °C until analysis. Serum LH, FSH, testosterone (in men), and oestradiol and progesterone (in women) were measured using automated chemiluminescent immunoassays (Abbott Diagnostics, Maidenhead, UK: LH catalogue # 2P40-25, FSH catalogue # 7K75-25, testosterone catalogue # 07K7320, oestradiol catalogue # 7K72-25, progesterone catalogue # 7K77-25). Reference ranges: LH in international units per litre (IU/L), 2–12 (men), 2–10 (follicular), 20–60 (mid-cycle), 4–14 (luteal); FSH in IU/L, 1.7–8 (men), 1.5–8.0 (follicular and luteal), 10–50 (mid-cycle); in men: testosterone in nanomoles per litre (nmol/L), 10–30; and in women: oestradiol in picomoles per litre (pmol/L), <300 (early follicular), 400–1500 (mid-cycle), 200–1000 (luteal) and progesterone in nmol/L, <5.0 (follicular), 3.5–67 (luteal). […]

[2] = Safety assessments in healthy participants and patients (adverse events, blood pressure, heart rate); type: in vivo, human; conditions: intranasal; for Side effects or adverse events (of any severity): all participants in all study groups (healthy men, healthy women, patients with HA)
Method: as §1
The primary outcome measure was change in serum LH following intranasal administration of kisspeptin compared to placebo. The secondary outcome measures were changes in serum FSH, as well as testosterone [in men], and oestradiol and progesterone [in women] following intranasal administration of kisspeptin compared to placebo. In addition, safety assessments were performed that included adverse event recording, blood pressure, and heart rate measurements.

[3] = test system: serum LH; conditions: cited from earlier work
Method: This was the first study to examine the effects of intranasal kisspeptin administration on reproductive hormone secretion in humans. […] We have previously examined a single intravenous bolus of 6.4, 12.8, and 25.6 nmol/kg of kisspeptin-54 in healthy men.[59] In that study, peak LH levels occurred 4–6 h after intravenous kisspeptin administration with a maximal increase from baseline of 8–10 IU/L for the three doses tested.[59] In the current study, a far more rapid increase in serum LH was observed after intranasal kisspeptin for all four doses tested with peak LH stimulation (4.45 IU/L abo ...

[4] = intranasal 3.2 nmol/kg vs placebo
[5] = intranasal 6.4 nmol/kg vs placebo
[6] = intranasal 6.4 nmol/kg, two-way ANOVA
[7] = intranasal 12.8 nmol/kg vs placebo
[8] = intranasal 12.8 nmol/kg, two-way ANOVA
[9] = intranasal 25.6 nmol/kg vs placebo

## Kisspeptin-54
[1]; [4]
  FSH AUC, mean difference vs placebo: 47.2 h·IU/L
  FSH maximum increase, mean difference vs placebo: 0.2 IU/L
  LH AUC, mean difference vs placebo: 197.6 h·IU/L
  LH maximum increase, mean difference vs placebo: 1.1 IU/L
  Testosterone AUC, mean difference vs placebo: 457.4 nmol·h/L
  Testosterone max increase, mean difference vs placebo: 1.5 nmol/L
[1]; intranasal 3.2 nmol/kg
  AUC of the change in serum LH: 172.2 ± 64.2 h·IU/L
  AUC of the change in serum testosterone: 273.6 ± 158.7 nmol·h/L
  Max increase from baseline in serum testosterone: 4.0 ± 1.0 nmol/L
  Maximum increase from baseline in serum FSH: 0.3 ± 0.1 IU/L
  Maximum increase from baseline in serum LH: 2.5 ± 0.3 IU/L
[1]; [5]
  FSH AUC, mean difference vs placebo: 97.6 h·IU/L
  FSH maximum increase, mean difference vs placebo: 0.4 IU/L
  LH AUC, mean difference vs placebo: 325.5 h·IU/L
  LH maximum increase, mean difference vs placebo: 1.7 IU/L
  Testosterone AUC, mean difference vs placebo: 329.7 nmol·h/L
  Testosterone max increase, mean difference vs placebo: 0.9 nmol/L
[1]; intranasal 6.4 nmol/kg
  AUC of the change in serum FSH: 37.3 ± 16.2 h·IU/L
  AUC of the change in serum LH: 300.2 ± 79.2 h·IU/L
  AUC of the change in serum testosterone: 145.9 ± 158.5 nmol·h/L
  Max increase from baseline in serum testosterone: 3.4 ± 0.8 nmol/L
  Maximum increase from baseline in serum FSH: 0.4 ± 0.1 IU/L
[1]; [6]
  Serum FSH over the sampling period, mean difference vs placebo: 0.4 IU/L
  Serum LH over the sampling period, mean difference vs placebo: 1.3 IU/L
[1]; [7]
  FSH AUC, mean difference vs placebo: 156.6 h·IU/L
  FSH maximum increase, mean difference vs placebo: 0.7 IU/L
  LH AUC, mean difference vs placebo: 621.1 h·IU/L
  LH maximum increase, mean difference vs placebo: 3.1 IU/L
  Testosterone AUC, mean difference vs placebo: 654.3 nmol·h/L
  Testosterone max increase, mean difference vs placebo: 2.4 nmol/L
[1]; intranasal 12.8 nmol/kg
  AUC of the change in serum FSH: 96.3 ± 23.2 h·IU/L
  AUC of the change in serum LH: 595.7 ± 98.3 h·IU/L
  AUC of the change in serum testosterone: 470.4 ± 144.0 nmol·h/L
  Time of maximal increase in serum testosterone: 150 min
  Max increase from baseline in serum testosterone: 4.9 ± 0.7 nmol/L
  Maximum increase from baseline in serum FSH: 0.7 ± 0.2 IU/L
  Maximum increase from baseline in serum LH: 4.45 IU/L and 4.4 ± 0.6 IU/L
[1]; [8]
  Serum FSH over the sampling period, mean difference vs placebo: 0.6 IU/L
  Serum LH over the sampling period, mean difference vs placebo: 2.5 IU/L
  Serum testosterone, mean difference vs placebo at peak levels from 120 min: 1.91 nmol/L
[1]; [9]
  FSH AUC, mean difference vs placebo: 147.6 h·IU/L
  FSH maximum increase, mean difference vs placebo: 0.7 IU/L
  LH AUC, mean difference vs placebo: 574.4 h·IU/L
  LH maximum increase, mean difference vs placebo: 2.9 IU/L
  Testosterone AUC, mean difference vs placebo: 630.3 nmol·h/L
  Testosterone max increase, mean difference vs placebo: 3.1 nmol/L
[1]; intranasal 25.6 nmol/kg
  AUC of the change in serum FSH: 87.3 ± 66.2 h·IU/L
  AUC of the change in serum LH: 549.0 ± 108.6 h·IU/L
  AUC of the change in serum testosterone: 446.5 ± 287.4 nmol·h/L
  Max increase from baseline in serum testosterone: 5.6 ± 1.6 nmol/L
  Maximum increase from baseline in serum FSH: 0.8 ± 0.3 IU/L
  Maximum increase from baseline in serum LH: 4.3 ± 0.6 IU/L
[1]; intranasal 25.6 nmol/kg, two-way ANOVA
  Serum LH over the sampling period, mean difference vs placebo: 2.3 IU/L
[1]; intranasal 3.2-25.6 nmol/kg
  Time of peak stimulation of serum LH after administration: 30 to 45 min
[2]
  Side effects or adverse events (of any severity): without any side effects or adverse events
[2]; listed as kisspeptin
  Side effects or adverse events (of any severity): no side effects or adverse events
[2]; any of the doses administered, recorded every 15 min
  Effect on blood pressure or heart rate measurements: no effect
[3]; healthy men, single intravenous bolus of 6.4, 12.8, and 25.6 nmol/kg
  Maximal increase from baseline in LH: 8–10 IU/L
[3]; healthy volunteers, intravenous, standard deviation 0.4 IU/L
  Increase in serum LH, mean: 10.2 IU/L
